Data from US9193728B2, “Fused tetracyclic pyrido [4,3-B] indole and pyrido [3,4-B] indole derivatives and methods of use” (Medivation Technologies, Inc., priority 2010, dated 2015).

Assays:
[1] = biological target: T1, human recombinant serotonin (5-Hydroxytryptamine) 5-HT2C receptor (Homo sapiens, UniProt P28335); experiment: Serotonin 5-HT2C radioligand binding ([3H]Mesulergine); conditions: compound at 0.1 μM; read-out: Serotonin (0.1 μM) 5-HT2C, percentage inhibition of ligand binding
T1 construct: expressed in transfected cells; host or cells: CHO-K1
T1 sequence (P28335 33-458): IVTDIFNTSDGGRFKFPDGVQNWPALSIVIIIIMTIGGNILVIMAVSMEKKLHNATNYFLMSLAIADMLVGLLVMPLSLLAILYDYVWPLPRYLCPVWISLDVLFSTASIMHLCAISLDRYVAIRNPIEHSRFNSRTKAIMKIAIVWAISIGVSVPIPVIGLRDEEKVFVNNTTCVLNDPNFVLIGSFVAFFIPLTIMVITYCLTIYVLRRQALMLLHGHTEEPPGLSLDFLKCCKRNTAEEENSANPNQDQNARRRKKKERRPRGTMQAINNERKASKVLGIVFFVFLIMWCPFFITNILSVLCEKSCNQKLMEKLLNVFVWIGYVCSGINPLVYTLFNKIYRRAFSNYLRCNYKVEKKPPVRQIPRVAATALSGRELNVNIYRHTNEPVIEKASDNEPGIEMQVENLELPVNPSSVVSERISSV
Description: To evaluate in radioligand binding assays the activity of compounds of the invention, human recombinant serotonin (5-Hydroxytryptamine) 5-HT2C receptor expressed in Chinese hamster ovary (CHO)-K1 cells (Wolf, W. et al, J. Neurochem. 69:1449, 1997) in a modified Tris-HCl buffer (50 mM Tris-HCl, pH 7.4, 0.1% Ascorbic Acid, 10 μM Pargyline) was used. Compounds of the invention were incubated with 1 nM [^3H]Mesulergine for 60 min. at 25° C. Non-specific binding was estimated in the presence of 1 μM Mianserin. Receptor proteins were filtered and washed, the filters were then counted to determine [^3H]Mesulergine specifically bound. Compounds were screened at 1 μM or lower, using 1% DMSO as vehicle. Biochemical assay results are presented as the percent inhibition of specific binding in Table 4.

[2] = biological target: T2, human recombinant serotonin (5-Hydroxytryptamine) 5-HT6 receptor (Homo sapiens, UniProt P50406); experiment: Serotonin 5-HT6 radioligand binding ([3H]LSD); conditions: compound at 0.1 μM; read-out: Serotonin (0.1 μM) 5-HT6, percentage inhibition of ligand binding
T2 construct: expressed in transfected cells; host or cells: HeLa
T2 sequence (P50406 whole entry): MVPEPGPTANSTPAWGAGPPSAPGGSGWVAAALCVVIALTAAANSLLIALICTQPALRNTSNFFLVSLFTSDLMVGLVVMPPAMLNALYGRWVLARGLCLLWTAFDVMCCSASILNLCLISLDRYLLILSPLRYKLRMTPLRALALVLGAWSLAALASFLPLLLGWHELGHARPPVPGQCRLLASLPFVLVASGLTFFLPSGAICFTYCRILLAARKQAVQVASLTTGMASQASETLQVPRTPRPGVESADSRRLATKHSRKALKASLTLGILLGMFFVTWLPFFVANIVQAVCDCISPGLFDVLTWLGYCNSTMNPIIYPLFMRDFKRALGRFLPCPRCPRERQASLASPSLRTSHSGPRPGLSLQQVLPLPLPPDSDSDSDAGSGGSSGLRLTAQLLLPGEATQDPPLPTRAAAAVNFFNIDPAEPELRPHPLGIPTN
Description: To evaluate in radioligand binding assays the activity of compounds of the invention, human recombinant serotonin (5-Hydroxytryptamine) 5-HT6 receptor expressed in human HeLa cells (Monsma, F. Jr. et al, Mol. Pharmacol. 43:320, 1993) in a modified Tris-HCl buffer (50 mM Tris-HCl, pH 7.4, 150 mM NaCl, 2 mM Ascorbic Acid, 0.001% BSA) was used. Compounds of the invention were incubated with 1.5 nM [3H]Lysergic acid diethylamide (LSD) for 120 min. at 37° C. Non-specific binding was estimated in the presence of 5 μM Serotonin (5-HT). Receptor proteins were filtered and washed, the filters were then counted to determine [3H]LSD specifically bound. Compounds were screened at 1 μM or lower, using 1% DMSO as vehicle. Biochemical assay results are presented as the percent inhibition of specific binding in Table 4.

[3] = biological target: T3, human recombinant dopamine D2L receptor (Homo sapiens, UniProt P14416); experiment: Dopamine D2L radioligand binding ([3H]Spiperone); conditions: compound at 1 μM; read-out: Dopamine (1 μM) D2L, percentage inhibition of ligand binding
T3 construct: expressed in transfected cells; host or cells: CHO
T3 sequence (P14416 whole entry): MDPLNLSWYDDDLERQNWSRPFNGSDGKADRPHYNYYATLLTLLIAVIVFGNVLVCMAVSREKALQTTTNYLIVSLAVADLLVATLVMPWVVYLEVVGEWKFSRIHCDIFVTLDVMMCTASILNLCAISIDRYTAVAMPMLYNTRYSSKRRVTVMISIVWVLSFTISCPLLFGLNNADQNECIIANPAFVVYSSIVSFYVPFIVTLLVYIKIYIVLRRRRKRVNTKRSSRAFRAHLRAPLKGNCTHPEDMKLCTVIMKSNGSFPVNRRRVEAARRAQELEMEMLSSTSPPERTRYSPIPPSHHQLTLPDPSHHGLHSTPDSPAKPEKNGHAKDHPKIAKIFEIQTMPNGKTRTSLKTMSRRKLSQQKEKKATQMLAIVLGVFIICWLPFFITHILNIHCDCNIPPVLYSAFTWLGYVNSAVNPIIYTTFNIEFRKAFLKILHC
Description: To evaluate in radioligand binding assays the activity of compounds of the invention, human recombinant dopamine D2L receptor expressed in Chinese hamster ovary (CHO) cells (Grandy, D. et al, Proc. Natl. Acad. Sci. USA. 86:9762, 1989; Hayes, G. et al, Mol. Endocrinol. 6:920, 1992) in a modified Tris-HCl buffer (50 mM Tris-HCl, pH 7.4, 1.4 mM Ascorbic Acid, 0.001% BSA, 150 mM NaCl) was used. Compounds of the invention were incubated with 0.16 nM [^3H]Spiperone for 120 min. at 25° C. Non-specific binding was estimated in the presence of 10 μM Haloperidol. Receptor proteins were filtered and washed, the filters were then counted to determine [^3H]Spiperone specifically bound. Compounds were screened at 1 μM or lower, using 1% DMSO as vehicle. Biochemical assay results are presented as the percent inhibition of specific binding in Table 3.

[4] = biological target: T4, human recombinant serotonin (5-Hydroxytryptamine) 5-HT2A receptor (Homo sapiens, UniProt P28223); experiment: Serotonin 5-HT2A radioligand binding ([3H]Ketanserin); conditions: compound at 0.1 μM; read-out: Serotonin (0.1 μM) 5-HT2A, percentage inhibition of ligand binding
T4 construct: expressed in transfected cells; host or cells: CHO-K1
T4 sequence (P28223 whole entry): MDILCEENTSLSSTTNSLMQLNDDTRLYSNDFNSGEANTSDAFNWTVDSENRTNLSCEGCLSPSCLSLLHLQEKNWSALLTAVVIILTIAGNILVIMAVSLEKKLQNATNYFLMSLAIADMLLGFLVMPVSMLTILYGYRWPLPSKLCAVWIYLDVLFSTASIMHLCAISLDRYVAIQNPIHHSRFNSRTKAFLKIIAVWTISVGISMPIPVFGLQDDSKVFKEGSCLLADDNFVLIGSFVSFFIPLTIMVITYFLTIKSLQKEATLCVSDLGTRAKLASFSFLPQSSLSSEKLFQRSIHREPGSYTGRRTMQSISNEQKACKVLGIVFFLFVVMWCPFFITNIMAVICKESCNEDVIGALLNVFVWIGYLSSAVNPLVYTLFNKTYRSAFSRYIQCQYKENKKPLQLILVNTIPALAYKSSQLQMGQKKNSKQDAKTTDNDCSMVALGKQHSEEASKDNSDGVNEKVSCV
Description: To evaluate in radioligand binding assays the activity of compounds of the invention, human recombinant serotonin (5-Hydroxytryptamine) 5-HT2A receptor expressed in Chinese hamster ovary (CHO)-K1 cells (Bonhaus, D. et al, Br. J. Pharmacol. 115:622, 1995; Saucier, C. et al, J. Neurochem. 68:1998, 1997) in a 50 mM Tris-HCl buffer, pH 7.4, was used. Compounds of the invention were incubated with 0.5 nM [^3H]Ketanserin for 60 min. at 25° C. Non-specific binding was estimated in the presence of 1 μM Mianserin. Receptor proteins were filtered and washed, the filters were then counted to determine [^3H]Ketanserin specifically bound. Compounds were screened at 1 μM or lower, using 1% DMSO as vehicle. Biochemical assay results are presented as the percent inhibition of specific binding in Table 4.

[5] = biological target: T5, human recombinant histamine H1 receptor (Homo sapiens, UniProt P35367); experiment: Histamine H1 radioligand binding ([3H]Pyrilamine); conditions: compound at 1 μM; 1.2 nM [3H]Pyrilamine; read-out: Histamine Binding (1 μM) H1, percentage inhibition
T5 construct: expressed in transfected cells; host or cells: CHO-K1
T5 sequence (P35367 whole entry): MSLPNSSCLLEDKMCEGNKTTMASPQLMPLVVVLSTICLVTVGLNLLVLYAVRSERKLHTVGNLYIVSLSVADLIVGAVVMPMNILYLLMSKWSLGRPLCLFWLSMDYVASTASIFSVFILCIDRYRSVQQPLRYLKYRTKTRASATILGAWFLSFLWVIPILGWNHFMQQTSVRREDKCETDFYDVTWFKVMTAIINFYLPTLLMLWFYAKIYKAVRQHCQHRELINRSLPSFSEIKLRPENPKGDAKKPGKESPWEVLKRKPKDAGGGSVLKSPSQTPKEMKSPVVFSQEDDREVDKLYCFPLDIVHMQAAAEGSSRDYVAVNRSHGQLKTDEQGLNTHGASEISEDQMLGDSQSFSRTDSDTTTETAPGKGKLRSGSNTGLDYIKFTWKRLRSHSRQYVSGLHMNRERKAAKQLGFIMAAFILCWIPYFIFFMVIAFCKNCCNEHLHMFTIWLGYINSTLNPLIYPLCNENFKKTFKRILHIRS
Description: To evaluate in radioligand binding assays the activity of compounds of the invention, human recombinant histamine H1 receptor expressed in Chinese hamster ovary (CHO) K1 cells (De Backer, M. et al, Biochem. Biophys. Res. Comm. 197(3):1601, 1993) in a modified Tris-HCl buffer (50 mM Tris-HCl, pH 7.4, 2 mM MgCl2, 100 mM NaCl, 250 mM Sucrose) was used. Compounds of the invention were incubated with 1.2 nM [^3H]Pyrilamine for 180 min. at 25° C. Non-specific binding was estimated in the presence of 1 μM Pyrilamine. Receptor proteins were filtered and washed, the filters were then counted to determine [^3H]Pyrilamine specifically bound. Compounds were screened at 1 μM or lower, using 1% DMSO as vehicle. Biochemical assay results are presented as the percent inhibition of specific binding in Table 2.

[6] = biological target: T6, human recombinant serotonin (5-Hydroxytryptamine) 5-HT7 receptor (Homo sapiens, UniProt P34969); experiment: Serotonin 5-HT7 radioligand binding ([3H]LSD); conditions: compound at 0.1 μM; read-out: Serotonin (0.1 μM) 5-HT7, percentage inhibition of ligand binding
T6 construct: expressed in transfected cells; host or cells: CHO
T6 sequence (P34969 whole entry): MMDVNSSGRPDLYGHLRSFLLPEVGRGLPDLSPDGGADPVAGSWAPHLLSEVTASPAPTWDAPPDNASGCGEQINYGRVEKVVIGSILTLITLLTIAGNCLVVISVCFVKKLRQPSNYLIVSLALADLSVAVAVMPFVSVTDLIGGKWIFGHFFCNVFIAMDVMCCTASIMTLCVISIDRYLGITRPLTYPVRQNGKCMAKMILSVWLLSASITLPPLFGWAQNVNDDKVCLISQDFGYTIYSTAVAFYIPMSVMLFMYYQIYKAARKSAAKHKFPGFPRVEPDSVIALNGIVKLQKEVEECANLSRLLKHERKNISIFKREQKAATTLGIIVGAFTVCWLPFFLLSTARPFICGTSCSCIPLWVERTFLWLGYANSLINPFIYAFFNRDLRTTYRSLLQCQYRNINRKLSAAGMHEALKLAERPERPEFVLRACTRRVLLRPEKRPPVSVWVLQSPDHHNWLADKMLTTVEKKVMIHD
Description: To evaluate in radioligand binding assays the activity of compounds of the invention, human recombinant serotonin (5-Hydroxytryptamine) 5-HT7 receptor expressed in Chinese hamster ovary (CHO) cells (Roth, B. et al, J. Pharmacol. Exp. Ther. 268:1403, 1994; Shen, Y. et al, J. Biol. Chem. 268:18200, 1993) in a modified Tris-HCl buffer (50 mM Tris-HCl, pH 7.4, 10 mM MgCl2, 0.5 mM EDTA) was used. Compounds of invention were incubated with 5.5 nM [^3H]Lysergic acid diethylamide (LSD) for 120 min. at 25° C. Non-specific binding was estimated in the presence of 10 μM Serotonin (5-HT). Receptor proteins were filtered and washed, the filters were then counted to determine [^3H]LSD specifically bound. Compounds were screened at 1 μM or lower, using 1% DMSO as vehicle. Biochemical assay results are presented as the percent inhibition of specific binding in Table 4.

Row | SMILES | inhibition at 0.1 µM [1] [%] | inhibition at 0.1 µM [2] [%] | inhibition at 1 µM [3] [%] | inhibition at 0.1 µM [4] [%] | inhibition at 1 µM [5] [%] | inhibition at 0.1 µM [6] [%]
1 | CN1CCc2c(c3cccc4c3n2CC(=O)N4)C1 [Compound 5] | 13 | 4 | 21 | -4 | 5 | 4
2 | CN1CCc2c(c3cccc4c3n2C(c2ccccc2)C(=O)N4)C1 (stereo not drawn) [Compound 6] | 7 | -6 | 41 | 12 | 46 | 30
3 | CN1CCc2c(c3cccc4c3n2CC(c2ccncc2)C4)C1 (stereo not drawn) [Compound 7] | -5 | -2 | 54 | 7 | 92 | 10
4 | CN1CCc2c(c3cccc4c3n2CCC4)C1 [Compound 8] | 48 | 9 | 15 | 30 | 49 | 14
5 | CN1CCc2c(c3cccc4c3n2CCO4)C1 [Compound 9, 8-methyl-1,2,7,8,9,10-hexahydro-[1,4]oxazino[2,3,4-hi]pyrido[4,3-b]indole] | 20 | 12 | 10 | 11 | 31 | 2
6 | CN1CCc2c(c3cccc4c3n2CC(c2ccncc2)S4)C1 (stereo not drawn) [Compound 10] | 8 | 23 | 32 | 23 | 84 | 12
7 | CN1CCc2c(c3cccc4c3n2CCS4)C1 [Compound 11, 8-methyl-1,2,7,8,9,10-hexahydropyrido[4,3-b][1,4]thiazino[2,3,4-hi]indole] | 57 | 18 | 10 | 27 | 39 | -8
8 | Cc1cc2c3c(c1)c1c(n3C(c3ccccc3)C2)CCN(C)C1 (stereo not drawn) [Compound 12] | 102 | 59 | 44 | 90 | 101 | 81
9 | Cc1cc2c3c(c1)c1c(n3CC2)CCN(CCCC(=O)c2ccc(F)cc2)C1 [Compound 13] | 93 | 31 | 91 | 98 | 64 | 62
10 | O=C(CCCN1CCc2c(c3cccc4c3n2CCC4)C1)c1ccc(F)cc1 [Compound 14] | 92 | 21 | 86 | 99 | 78 | 58
11 | Cc1cc2c3c(c1)c1c(n3CC(c3ccccc3)O2)CCN(C)C1 (stereo not drawn) [Compound 15, 5,8-dimethyl-2-phenyl-1,2,7,8,9,10-hexahydro-[1,4]oxazino[2,3,4-hi]pyrido[4,3-b]indole] | 4 | 21 | 76 | 10 | 96 | 9
12 | CN1CCc2c(c3cccc4c3n2CC(c2ccc(F)cc2)C4)C1 (stereo not drawn) [Compound 16] | 34 | 57 | 91 | 40 | 78 | 16
13 | Cc1cc2c3c(c1)c1c(n3CC(c3ccc(F)cc3)=CC2)CCN(C)C1 [Compound 156, (Z)-6-(4-fluorophenyl)-2,11-dimethyl-4,7,9,10,11,12-hexahydroazepino[3,2,1-hi]pyrido[4,3-b]indole] | 93 | 62 | 65 | 98 | 101 | 49
14 | Cc1cc2c3c(c1)c1c(n3CC(c3ccc(F)cc3)CC2)CCN(C)C1 (stereo not drawn) [Compound 157, 6-(4-fluorophenyl)-2,11-dimethyl-4,5,6,7,9,10,11,12-octahydroazepino[3,2,1-hi]pyrido[4,3-b]indole] | 96 | 91 | 83 | 90 | 95 | 80
15 | CN1CCc2c(c3cccc4c3n2CC(=O)N4Cc2ccncc2)C1 [Compound 159] | 35 | 4 | 6 | 53 | 16 | 38
16 | Cc1ccc(C2Cn3c4c(c5cccc2c53)CN(C)CC4)cn1 (stereo not drawn) [Compound 210] |  | 1 |  | 23 |  | 21
17 | Cc1cc2c(-c3ccccc3)cn3c4c(c(c1)c23)CN(C)CC4 [Compound 211] |  | 47 |  | 50 |  | 78
